Measurements from patent US20230085307A1, “PYRIDAZINONE COMPOUND AND HERBICIDE” (NISSAN CHEMICAL CORPORATION, priority 2019, published 2023).

Key:
late watergrass = test: Test Example 2: herbicidal activity, application during weed generation under submerged conditions (Table 17, symbol A); format: in vivo, late watergrass (Echinochloa oryzicola); details: AAH 320 g/ha; application during weed generation, submerged conditions
In short: (§1)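 Mixed weed seedlings in alluvial soil under a 4 cm water layer, greenhouse-grown at 25–30° C. Compound given as a diluted emulsion into the floodwater at the 1–2 leaf stage; response graded after three weeks.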

wild oat = test: Test Example 4: herbicidal effect by soil treatment (Table 19, symbol I); format: in vivo, wild oat (Avena fatua); details: amount of applied herbicide 320 g/ha
In short: (§2)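 Step 1: sow seeds in sterilized diluvial soil, cover ~1.5 cm. Step 2: spray diluted emulsion onto soil surface at predetermined rate. Step 3: greenhouse, 25–30° C, three weeks. Step 4: grade effect on each plant by earlier criteria.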

oval-leafed pondweed [1] = test: Test Example 1: herbicidal activity, application before weed generation under submerged conditions (Table 16, symbol C); format: in vivo, oval-leafed pondweed (Monochoria vaginalis); details: amount of applied herbicide 320 g/ha
In short: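 Alluvial soil was flooded to 4 cm depth, weed seeds were sown mixed and 2.5-leaf rice seedlings were transplanted. On sowing day, the compound's emulsion, diluted in water to a set dose, was applied to the water surface. Plants grew at 25–30 °C and were scored 0–5 after three weeks.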

lambsquarters [2] = test: Test Example 5: herbicidal effect by foliage application, plastic box (Table 20, symbol O); format: in vivo, lambsquarters (Chenopodium album); details: 320 g/ha
In short: (§3)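 Foliar spray test: emulsion formulation diluted in water to a set application rate, sprayed onto 14-day-old plants raised in diluvial soil at 25° C to 30° C under glass. Both herbicidal effect and crop effect rated visually three weeks later.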

chickweed [3] = test: Test Example 5: herbicidal effect by foliage application, plastic box (Table 20, symbol P); format: in vivo, common chickweed (Stellaria media); details: 320 g/ha
In short: as §3

redroot pigweed = test: Test Example 4: herbicidal effect by soil treatment (Table 19, symbol N); format: in vivo, redroot pigweed (Amaranthus retroflexus); details: amount of applied herbicide 320 g/ha
In short: as §2

Chinese sprangletop = test: Test Example 3: herbicidal effect by foliage application, Wagner pot (Table 18, symbol D); format: in vivo, chinese sprangletop (Leptochloa chinensis); details: 320 g/ha
In short: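 Plants were sown in alluvial soil held under 0.1–0.5 cm standing water and grown 14 days in a greenhouse at 25–30 °C. An emulsifiable formulation, water-diluted to the set dose, was then sprayed onto the foliage, and effects were scored three weeks later using previously defined criteria.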

lambsquarters [4] = test: Test Example 4: herbicidal effect by soil treatment (Table 19, symbol O); format: in vivo, lambsquarters (Chenopodium album); details: amount of applied herbicide 320 g/ha
In short: as §2

chickweed [5] = test: Test Example 4: herbicidal effect by soil treatment (Table 19, symbol P); format: in vivo, common chickweed (Stellaria media); details: amount of applied herbicide 320 g/ha
In short: as §2

Italian ryegrass = test: Test Example 5: herbicidal effect by foliage application, plastic box (Table 20, symbol K); format: in vivo, Italian ryegrass (Lolium multiflorum); details: 320 g/ha
In short: as §3

Japanese bulrush = test: Test Example 2: herbicidal activity, application during weed generation under submerged conditions (Table 17, symbol B); format: in vivo, Japanese bulrush (Schoenoplectus juncoides); details: AAH 320 g/ha; application during weed generation, submerged conditions
In short: as §1

oval-leafed pondweed [6] = test: Test Example 2: herbicidal activity, application during weed generation under submerged conditions (Table 17, symbol C); format: in vivo, oval-leafed pondweed (Monochoria vaginalis); details: AAH 320 g/ha; application during weed generation, submerged conditions
In short: as §1

persian speedwell = test: Test Example 5: herbicidal effect by foliage application, plastic box (Table 20, symbol R); format: in vivo, Persian speedwell (Veronica persica); details: 320 g/ha
In short: as §3

barnyard grass = test: Test Example 4: herbicidal effect by soil treatment (Table 19, symbol H); format: in vivo, barnyard grass (Echinochloa crus-galli); details: amount of applied herbicide 320 g/ha
In short: as §2

blackgrass = test: Test Example 4: herbicidal effect by soil treatment (Table 19, symbol J); format: in vivo, blackgrass (Alopecurus myosuroides); details: amount of applied herbicide 320 g/ha
In short: as §2

[7] = foliage application, three weeks after application
[8] = foliage application after 14-day growth, evaluated three weeks after application

CCCC(=O)Oc1c(C)nn(C)c(=O)c1-c1c(-c2ccc(F)cc2OCC)sc2cc(Cl)ccc12 [3-046]
herbicidal effect rating, A: late watergrass (late watergrass): 0 (Herbicidal rate of 5% or less (almost no effect))
I: wild oat, herbicidal effect grade (wild oat): 0 (Herbicidal rate of 5% or less (almost no effect))
Herbicidal effect, C: oval-leafed pondweed (oval-leafed pondweed [1]): 0 (Herbicidal rate of 5% or less (almost no effect))
O: lambsquarters, herbicidal effect grade (lambsquarters [2]; [7]): 3 (Herbicidal rate of 40% or more and less than 70%)
P: chickweed, herbicidal effect grade (chickweed [3]; [7]): 5 (Herbicidal rate of 90% or more (almost completely withered))
N: redroot pigweed, herbicidal effect grade (redroot pigweed): 5 (Herbicidal rate of 90% or more (almost completely withered))
herbicidal effect on Chinese sprangletop (D) (Chinese sprangletop): 2 (Herbicidal rate of 20% or more and less than 40%)
O: lambsquarters, herbicidal effect grade (lambsquarters [4]): 3 (Herbicidal rate of 40% or more and less than 70%)
P: chickweed, herbicidal effect grade (chickweed [5]): 4 (Herbicidal rate of 70% or more and less than 90%)
K: Italian ryegrass, herbicidal effect grade (Italian ryegrass; [7]): 0 (Herbicidal rate of 5% or less (almost no effect))
herbicidal effect rating, B: Japanese bulrush (Japanese bulrush): 2 (Herbicidal rate of 20% or more and less than 40%)
herbicidal effect rating, C: oval-leafed pondweed (oval-leafed pondweed [6]): 1 (Herbicidal rate of 5% or more and less than 20%)
R: persian speedwell, herbicidal effect grade (persian speedwell; [7]): 3 (Herbicidal rate of 40% or more and less than 70%)
H: barnyard grass, herbicidal effect grade (barnyard grass): 0 (Herbicidal rate of 5% or less (almost no effect))

CCCC(=O)Oc1c(C)nn(C)c(=O)c1-c1c(-c2ccc(C#N)cc2)sc2c(F)cccc12 [4-053]
herbicidal effect rating, A: late watergrass (late watergrass): 4 (Herbicidal rate of 70% or more and less than 90%)
Herbicidal effect by soil treatment, I: wild oat (wild oat): 0 (Herbicidal rate of 5% or less (almost no effect))
Herbicidal effect, C: oval-leafed pondweed (oval-leafed pondweed [1]): 2 (Herbicidal rate of 20% or more and less than 40%)
herbicidal effect on O: lambsquarters (evaluation grade 0-5) (lambsquarters [2]; [8]): 4 (Herbicidal rate of 70% or more and less than 90%)
herbicidal effect on P: chickweed (evaluation grade 0-5) (chickweed [3]; [8]): 5 (Herbicidal rate of 90% or more (almost completely withered))
Herbicidal effect by soil treatment, N: redroot pigweed (redroot pigweed): 5 (Herbicidal rate of 90% or more (almost completely withered))
herbicidal effect on Chinese sprangletop (D) (Chinese sprangletop): 3 (Herbicidal rate of 40% or more and less than 70%)
Herbicidal effect by soil treatment, O: lambsquarters (lambsquarters [4]): 3 (Herbicidal rate of 40% or more and less than 70%)
Herbicidal effect by soil treatment, J: blackgrass (blackgrass): 0 (Herbicidal rate of 5% or less (almost no effect))
Herbicidal effect by soil treatment, P: chickweed (chickweed [5]): 4 (Herbicidal rate of 70% or more and less than 90%)
herbicidal effect on K: Italian ryegrass (evaluation grade 0-5) (Italian ryegrass; [8]): 4 (Herbicidal rate of 70% or more and less than 90%)
herbicidal effect rating, B: Japanese bulrush (Japanese bulrush): 2 (Herbicidal rate of 20% or more and less than 40%)
herbicidal effect on R: persian speedwell (evaluation grade 0-5) (persian speedwell; [8]): 5 (Herbicidal rate of 90% or more (almost completely withered))
Herbicidal effect by soil treatment, H: barnyard grass (barnyard grass): 0 (Herbicidal rate of 5% or less (almost no effect))

CCCC(=O)Oc1c(C)nn(C)c(=O)c1-c1c(-c2ccc(F)cc2)sc2cc(C)c(C)cc12 [5-089]
herbicidal effect rating, A: late watergrass (late watergrass): 3 (Herbicidal rate of 40% or more and less than 70%)
I: wild oat, herbicidal effect grade (wild oat): 0 (Herbicidal rate of 5% or less (almost no effect))
Herbicidal effect, C: oval-leafed pondweed (oval-leafed pondweed [1]): 0 (Herbicidal rate of 5% or less (almost no effect))
herbicidal effect on lambsquarters (O) (lambsquarters [2]; [7]): 0 (Herbicidal rate of 5% or less (almost no effect))
N: redroot pigweed, herbicidal effect grade (redroot pigweed): 0 (Herbicidal rate of 5% or less (almost no effect))
herbicidal effect on Chinese sprangletop (D) (Chinese sprangletop): 3 (Herbicidal rate of 40% or more and less than 70%)
O: lambsquarters, herbicidal effect grade (lambsquarters [4]): 0 (Herbicidal rate of 5% or less (almost no effect))
J: blackgrass, herbicidal effect grade (blackgrass): 0 (Herbicidal rate of 5% or less (almost no effect))
P: chickweed, herbicidal effect grade (chickweed [5]): 0 (Herbicidal rate of 5% or less (almost no effect))
herbicidal effect on Italian ryegrass (K) (Italian ryegrass; [7]): 0 (Herbicidal rate of 5% or less (almost no effect))
herbicidal effect rating, B: Japanese bulrush (Japanese bulrush): 0 (Herbicidal rate of 5% or less (almost no effect))
herbicidal effect rating, C: oval-leafed pondweed (oval-leafed pondweed [6]): 0 (Herbicidal rate of 5% or less (almost no effect))
herbicidal effect on persian speedwell (R) (persian speedwell; [7]): 1 (Herbicidal rate of 5% or more and less than 20%)
H: barnyard grass, herbicidal effect grade (barnyard grass): 0 (Herbicidal rate of 5% or less (almost no effect))

CCOc1ccccc1-c1sc2cc(C)c(C)cc2c1-c1c(O)c(C)nn(C)c1=O [5-094]
herbicidal effect rating, A: late watergrass (late watergrass): 2 (Herbicidal rate of 20% or more and less than 40%)
I: wild oat, herbicidal effect grade (wild oat): 0 (Herbicidal rate of 5% or less (almost no effect))
Herbicidal effect, C: oval-leafed pondweed (oval-leafed pondweed [1]): 4 (Herbicidal rate of 70% or more and less than 90%)
herbicidal effect on lambsquarters (O) (lambsquarters [2]; [7]): 4 (Herbicidal rate of 70% or more and less than 90%)
N: redroot pigweed, herbicidal effect grade (redroot pigweed): 3 (Herbicidal rate of 40% or more and less than 70%)
herbicidal effect on Chinese sprangletop (D) (Chinese sprangletop): 3 (Herbicidal rate of 40% or more and less than 70%)
O: lambsquarters, herbicidal effect grade (lambsquarters [4]): 3 (Herbicidal rate of 40% or more and less than 70%)
J: blackgrass, herbicidal effect grade (blackgrass): 1 (Herbicidal rate of 5% or more and less than 20%)
P: chickweed, herbicidal effect grade (chickweed [5]): 1 (Herbicidal rate of 5% or more and less than 20%)
herbicidal effect on Italian ryegrass (K) (Italian ryegrass; [7]): 5 (Herbicidal rate of 90% or more (almost completely withered))
herbicidal effect rating, B: Japanese bulrush (Japanese bulrush): 3 (Herbicidal rate of 40% or more and less than 70%)
herbicidal effect rating, C: oval-leafed pondweed (oval-leafed pondweed [6]): 3 (Herbicidal rate of 40% or more and less than 70%)
herbicidal effect on persian speedwell (R) (persian speedwell; [7]): 5 (Herbicidal rate of 90% or more (almost completely withered))
H: barnyard grass, herbicidal effect grade (barnyard grass): 1 (Herbicidal rate of 5% or more and less than 20%)

COc1cc(F)ccc1-c1sc2cc(C)c(C)cc2c1-c1c(O)c(C)nn(C)c1=O [5-101]
herbicidal effect rating, A: late watergrass (late watergrass): 0 (Herbicidal rate of 5% or less (almost no effect))
I: wild oat, herbicidal effect grade (wild oat): 0 (Herbicidal rate of 5% or less (almost no effect))
Herbicidal effect, C: oval-leafed pondweed (oval-leafed pondweed [1]): 3 (Herbicidal rate of 40% or more and less than 70%)
herbicidal effect on lambsquarters (O) (lambsquarters [2]; [7]): 4 (Herbicidal rate of 70% or more and less than 90%)
N: redroot pigweed, herbicidal effect grade (redroot pigweed): 1 (Herbicidal rate of 5% or more and less than 20%)
herbicidal effect on Chinese sprangletop (D) (Chinese sprangletop): 2 (Herbicidal rate of 20% or more and less than 40%)
O: lambsquarters, herbicidal effect grade (lambsquarters [4]): 2 (Herbicidal rate of 20% or more and less than 40%)
J: blackgrass, herbicidal effect grade (blackgrass): 0 (Herbicidal rate of 5% or less (almost no effect))
P: chickweed, herbicidal effect grade (chickweed [5]): 0 (Herbicidal rate of 5% or less (almost no effect))
herbicidal effect on Italian ryegrass (K) (Italian ryegrass; [7]): 4 (Herbicidal rate of 70% or more and less than 90%)
herbicidal effect rating, B: Japanese bulrush (Japanese bulrush): 2 (Herbicidal rate of 20% or more and less than 40%)
herbicidal effect rating, C: oval-leafed pondweed (oval-leafed pondweed [6]): 2 (Herbicidal rate of 20% or more and less than 40%)
herbicidal effect on persian speedwell (R) (persian speedwell; [7]): 4 (Herbicidal rate of 70% or more and less than 90%)
H: barnyard grass, herbicidal effect grade (barnyard grass): 0 (Herbicidal rate of 5% or less (almost no effect))
